Test results from US20040220268A1, “Compound that directly stimulates phospholipase C activity” (priority 2003, published 2004).

What was measured:
PC12 cells = test: [Ca2+]i measurement with fura-2; assay type: cell-based, rat; settings: 25 μM
Description: (§1) Neutrophils and HL60, and differentiated HL60, U937, NIH3T3, and PC12 cells were loaded with fura-2 and then stimulated with 25 μM of m-3M3FBS. Changes in the 340 nm/380 nm excitation ratio were monitored, and converted to [Ca^2+]i levels. Data are presented as means ±S. E. M. of three independent experiments.
(§2) U937 (human histiocytic lymphoma cells), HL60 (human promyelocytic leukemia cells), NIH3T3 (NIH Swiss mouse embryo fibroblasts), and PC12 (rat adrenal pheochromocytoma cells) were obtained from the American Type Culture Collection (Rockville, Md.) and HeLa (human adenocarcinoma cells) Tet-off cells were purchased from Clontech (Palo Alto, Calif., U.S.A.) and maintained as recommended. The cells were maintained at about 1×10^6 cells/ml under standard incubator conditions (humidified atmosphere, 95% air, 5% CO2, 37° C.). […]
(§3) Freshly prepared human neutrophils were incubated in serum free RPMI 1640 medium with 3 μM of fura-2/AM at 37° C. for 30 min with continuous stirring. […] Changes in the fluorescence ratio were measured at an emission wavelength of 500 nm for dual excitation wavelengths at 340 nm and 380 nm. The calibration of the fluorescence ratio versus [Ca^2+]i was performed as described by Grynkiewicz (Grynkiewicz et al., 1985).

phospholipase D = test: In vitro activity of phospholipase D; assay type: biochemical; settings: data not shown
[1] = test system: PTX-sensitive Gi-proteins; test: PTX sensitivity of [Ca2+]i increase in neutrophils; assay type: cell-based, human; settings: PTX 1 μg/ml for 90 min; m-3M3FBS 25 μM, fMLF 1 μM
Description: Isolated neutrophils were preincubated with PTX (1 μg/ml) or vehicle for 90 min at 37° C. and stimulated with m-3M3FBS, FMLF, or ATP at concentrations of 25, 1, and 500 μM, respectively. Changes in the excitation ratios at 340 nm/380 nm were monitored. Data are presented as means ±S. E. M. of two independent experiments (A). cAMP levels were determined by a radio receptor assay. Prepared cells were treated with m-3M3FBS (25 μM) or histamine (100 μM) and then lysed with Tris-EDTA. After removing the supernatant, [ 3H] cAMP and protein were added, and the amount of [^3H] cAMP-protein complex was determined. The amount of unlabeled cAMP (in the sample) was then calculated by measuring the protein-bound radioactivity. Data are presented as means ±S. E. M. of two independent experiments (B). RGS2-GFP inducible HeLa cells were cultured for 48 h in the absence or in the presence of tetracycline, and the induction of RGS2-GFP was confirmed by Western blot analysis using anti-GFP antibody (C). RGS2-GFP inducible HeLa cells were cultured for 48 h in the absence or in the presence of tetracycline and loaded with fura-2. Cells were treated with histamine (100 μM) or m-3M3FBS (25 μM), and changes in the 340 nm/380 nm ratios were monitored and converted to [Ca^2+]i values. The results shown are representative of three independent experiments (C).
Freshly prepared human neutrophils were incubated in serum free RPMI 1640 medium with 3 μM of fura-2/AM at 37° C. for 30 min with continuous stirring. After washing with serum free RPMI 1640 medium, the cells were suspended in serum free RPMI containing 250 μM of sulfinpyrazone to prevent dye leakage. About 2×10^6 cells were suspended in Ca^2+ free Locke's solution (158.4 mM NaCl, 5.6 mM KCl, 1.2 mM MgCl2, 5 mM HEPES pH 7.3, 10 mM glucose, and 0.2 mM EGTA) for each measurement. Changes in the fluorescence ratio were measured at an emission wavelength of 500 nm for dual excitation wavelengths at 340 nm and 380 nm. The calibration of the fluorescence ratio versus [Ca^2+]i was performed as described by Grynkiewicz (Grynkiewicz et al., 1985).

NIH3T3 cells = test: [Ca2+]i measurement with fura-2; assay type: cell-based, mouse; settings: NIH 3T3; 25 μM
Description: as §1, §2, §3

PLC = test: In vitro PLC activity in the presence or absence of Ca2+; assay type: biochemical; settings: data not shown
Description: Moreover, the primary structures of the several different isoforms of PLC are known (Rhee, 2001; Noh et al., 1995). PLC β and PLC δ have an NH2-terminal PH domain, an EF-hand, X and Y domains, known to form the catalytic core, and a COOH-terminal C2 domain. In addition, PLC β has a long C-terminal tail beyond the C2 domain (Rhee, 2001; Noh et al., 1995; Rhee and Bae, 1997). PLC γ has additional three SH domains between the X and Y domains, but no long COOH-terminal tail (Rhee, 2001; Noh et al., 1995; Rhee and Bae, 1997). […] For the proper activation of PLC enzyme, calcium has been regarded as an essential requirement (Rhee and Bae, 1997). Calcium is required not only for the functioning of C2 domain that mediates the Ca^2+-dependent binding to lipid vesicles but also for the catalytic activity of the enzyme (Rhee and Bae, 1997). […] An investigation of the effect of m-3M3FBS on the lipase activity of an X and Y domain mixture will be required to confirm the possible action of m-3M3FBS on the two catalytic cores. Since m-3M3FBS is the first compound that directly stimulates PLC activity, the elucidation of the action mechanism of the compound will give useful information on the basic molecular mechanisms of the activation of PLC enzymes.

human neutrophils = test: Superoxide anion generation (lucigenin chemiluminescence); assay type: cell-based; settings: up to 50 μM
Description: Superoxide anion generation was measured by monitoring chemiluminescence in the presence of the chemiluminogenic probe lucigenin. Prepared neutrophils were stimulated with m-3M3FBS or o-3M3FBS at 2.5, 5, 10, 15, 20, 25, and 50 μM and lucigenin (40 μM) was then added. Luminescence changes were measured using a Luminoskan. Data are presented as means ±S. E. M. of four independent experiments (A). Structures of m-3M3FBS (2,4,6-Trimethyl-N-(meta 3-trifluoromethyl-phenyl)-benzenesulfonamide) and o-3M3FBS (2,4,6-Trimethyl-N-(ortho 3-trifluoromethyl-phenyl)-benzenesulfonamide) (B).
Superoxide anion production was measured by monitoring chemiluminescence in the presence of the chemiluminogenic probe lucigenin (Bureau et al., 2001). Prepared neutrophils were plated in 96 wells and stimulated with chemicals at concentrations of 2.5, 5, 10, 15, 20, 25 and 50 μM, and then the lucigenin (40 μM) was added. Luminescence, measured with a Luminoskan (Labsystems, Inc., Helsinki, Finland), was integrated over 10 s intervals for a total of 3 min at room temperature.

| SMILES | calcium increase (PC12 cells) | activity of phospholipase D (phospholipase D) | effect of PTX preincubation on the induced calcium increase [1] | calcium increase (NIH3T3 cells) | in vitro PLC activity (PLC) | effect on superoxide generation (human neutrophils) |
| --- | --- | --- | --- | --- | --- | --- |
| Cc1cc(C)c(S(=O)(=O)Nc2cccc(C(F)(F)F)c2)c(C)c1 [m-3M3FBS, 2,4,6-Trimethyl-N-(meta 3-trifluoromethyl-phenyl)-benzenesulfonamide] | induced calcium increase | did not affect | insensitive to PTX | induced calcium increase | stimulated | – |
| Cc1cc(C)c(S(=O)(=O)Nc2ccccc2C(F)(F)F)c(C)c1 [o-3M3FBS, 2,4,6-Trimethyl-N-(ortho 3-trifluoromethyl-phenyl)-benzenesulfonamide, reference compound] | – | – | – | – | – | did not affect |
